Where “and” joins values, the source holds several entries; their conditions need not be identical. Equal entries are not always repeated.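 How tested: cells in 96-well plates exposed to compound for 48 hours at five concentrations. Abbreviation: GI50, concentration required for 50% inhibition of growth. TGI marks complete inhibition of growth.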

Among the test systems are SK-OV-3 ovarian; NCI-H23 lung; SF-268 CNS; RPMI-8226 leukemia; ACHN renal; OVCAR-5 ovarian; UO-31 renal; 786-0 renal; SNB-19 CNS; IGROV1 ovarian.
Common to all, as to assay: growth of human tumour cells (NCI), 48 h

As to `COc1ccc(OC)c(/C=C2\COc3ccc(O)c(O)c3C2=O)c1`, the GI50 in the assay with SK-OV-3 ovarian was 6.94 µM; with NCI-H23 lung it was 2.44 µM; in the assay on SF-268 CNS it was 2.19 µM; with RPMI-8226 leukemia, 0.751 µM; in the assay with ACHN renal, 1.84 µM; in the assay with OVCAR-5 ovarian it was 2.62 µM. For the same compound, the GI50 in the assay with UO-31 renal was 1.22 µM; with 786-0 renal, 2.28 µM; in the assay on SNB-19 CNS, 3.09 µM; with IGROV1 ovarian, 2.31 µM. The TGI stood at 22.5 µM in the assay on SK-OV-3 ovarian; 7.3 µM with NCI-H23 lung; 10.8 µM in the assay with SF-268 CNS; 6.12 µM in the assay with RPMI-8226 leukemia; 3.97 µM in the assay on ACHN renal; 6.48 µM with OVCAR-5 ovarian. For the same compound, the TGI turned out to be 2.6 µM in the assay on UO-31 renal, 7.12 µM with 786-0 renal, 11.1 µM in the assay with SNB-19 CNS and 6.68 µM in the assay with IGROV1 ovarian.
For the compound `COc1ccc2c(c1)/C(=C\c1c(Cl)n(C)c3ccccc13)C(=O)N2`, the GI50 in the assay on SK-OV-3 ovarian is 0.86 µM; in the assay with NCI-H23 lung, 1.99 µM; in the assay with SF-268 CNS, 2.87 µM; with RPMI-8226 leukemia it was 1.76 µM; in the assay on ACHN renal it was 1.6 µM; with OVCAR-5 ovarian it was 3.94 µM. The GI50 with UO-31 renal is 3.71 µM; in the assay with 786-0 renal, 2.18 µM; with SNB-19 CNS it was 1.85 µM; in the assay on IGROV1 ovarian, 0.561 µM. The TGI is 14.5 µM in the assay with SK-OV-3 ovarian; 11.4 µM with NCI-H23 lung; 35.1 µM in the assay with SF-268 CNS; above 34.3 µM with RPMI-8226 leukemia; 16.2 µM with ACHN renal; 15.3 µM in the assay on OVCAR-5 ovarian. Also, the TGI in the assay with UO-31 renal is 20.6 µM; with 786-0 renal it was 12.5 µM; in the assay with SNB-19 CNS, 23 µM.
Consider `CCN(CC)CCCC(Cc1ccccc1)Nc1c2ccc(Cl)cc2nc2ccc(OC)cc12` (stereo not drawn), for which the GI50 with SK-OV-3 ovarian was 4.09 µM; with NCI-H23 lung, 2.9 µM; with SF-268 CNS, 2.14 µM; with RPMI-8226 leukemia, 2.08 µM; with ACHN renal it was 2.01 µM; in the assay on OVCAR-5 ovarian it was 2.67 µM. Moreover, the GI50 in the assay on UO-31 renal was 1.35 µM; in the assay with 786-0 renal, 1.4 µM; in the assay on SNB-19 CNS, 2.56 µM; with IGROV1 ovarian, 3.21 µM. The TGI was determined as 13.9 µM with SK-OV-3 ovarian; 8.47 µM in the assay with NCI-H23 lung; 5.84 µM with SF-268 CNS; 5.26 µM in the assay with RPMI-8226 leukemia; 4.5 µM in the assay with ACHN renal; 12.7 µM in the assay on OVCAR-5 ovarian. The TGI with UO-31 renal is 2.69 µM; in the assay with 786-0 renal, 3.34 µM; with SNB-19 CNS it was 7.17 µM; with IGROV1 ovarian, 13.2 µM.
For the compound `COc1ccc(NC(=O)CC(=O)N2N=C(N(CCC#N)c3cccc(C)c3)CC2c2ccccc2)cc1` (stereo not drawn), the TGI with SK-OV-3 ovarian, in the assay on NCI-H23 lung, with SF-268 CNS, in the assay with RPMI-8226 leukemia, with ACHN renal and in the assay on OVCAR-5 ovarian was above 100 µM each time. For the same compound, the TGI in the assay on UO-31 renal, with 786-0 renal, in the assay on SNB-19 CNS and in the assay with IGROV1 ovarian was above 100 µM in each case.
For `O=S(=O)(CCNCc1ccc(-c2ccc3ncnc(Nc4ccc(OCc5cccc(F)c5)c(Cl)c4)c3c2)o1)c1ccccc1`, the GI50 with SK-OV-3 ovarian is 0.349 µM; in the assay on NCI-H23 lung it was above 25 µM; with SF-268 CNS, above 25 µM; in the assay with RPMI-8226 leukemia it was above 25 µM; with ACHN renal it was 18.9 µM; with OVCAR-5 ovarian it was above 25 µM. Further, the GI50 was 9.06 µM with UO-31 renal, above 25 µM in the assay on 786-0 renal, above 25 µM with SNB-19 CNS and above 23.6 µM in the assay on IGROV1 ovarian. For the same compound, the TGI in the assay with SK-OV-3 ovarian, in the assay on NCI-H23 lung, in the assay on SF-268 CNS, in the assay on RPMI-8226 leukemia, in the assay with ACHN renal and in the assay on OVCAR-5 ovarian was above 25 µM in each case. In addition, the TGI in the assay with UO-31 renal, in the assay with 786-0 renal, in the assay on SNB-19 CNS and with IGROV1 ovarian was above 25 µM in each case.
Turning to `Cc1cc(C)c2nc3nc(C)cc(C)c3c(N)c2c1`, the GI50 with SK-OV-3 ovarian was 4.1 µM; in the assay on NCI-H23 lung, 5.29 µM; in the assay on SF-268 CNS it was 5.38 µM; with RPMI-8226 leukemia, 4.55 µM; with ACHN renal, 3.29 µM; with OVCAR-5 ovarian, 4.3 µM. Besides, the GI50 in the assay with UO-31 renal is 2.9 µM; with 786-0 renal, 4.07 µM; with SNB-19 CNS it was 8.51 µM; with IGROV1 ovarian it was 3.64 µM. The TGI in the assay with SK-OV-3 ovarian turned out to be 23.5 µM; with NCI-H23 lung, 21.4 µM; in the assay with SF-268 CNS, 21.6 µM; in the assay on RPMI-8226 leukemia it was 24.8 µM; in the assay with ACHN renal, 49.4 µM; in the assay with OVCAR-5 ovarian it was 29.5 µM. Besides, the TGI turned out to be 16 µM with UO-31 renal, 17.4 µM in the assay with 786-0 renal, 35.9 µM in the assay with SNB-19 CNS and 28.2 µM in the assay on IGROV1 ovarian.
In the case of `COc1cc(/C=C2\C(=O)N(c3ccccc3)c3ccccc32)cc(OC)c1OC`, the GI50 was 18.4 µM in the assay with SK-OV-3 ovarian; 9.79 µM with NCI-H23 lung; 4.32 µM with SF-268 CNS; 2.17 µM with RPMI-8226 leukemia; 6.32 µM with ACHN renal; 14.1 µM in the assay on OVCAR-5 ovarian. The GI50 with UO-31 renal is 13.7 µM; in the assay on 786-0 renal, 6.67 µM; in the assay with SNB-19 CNS, 6.1 µM; in the assay on IGROV1 ovarian it was 6.61 µM. The TGI was found to be 43.8 µM in the assay on SK-OV-3 ovarian; 30.1 µM in the assay on NCI-H23 lung; 15.3 µM in the assay with SF-268 CNS; 5.78 µM in the assay on RPMI-8226 leukemia; 20.7 µM with ACHN renal; 29 µM in the assay on OVCAR-5 ovarian. Also, the TGI with UO-31 renal is 31.3 µM; in the assay with 786-0 renal it was 21.2 µM; in the assay with SNB-19 CNS, 25.5 µM; with IGROV1 ovarian it was 32 µM.
For `O=C(Cc1ccccc1)NC(c1ccc(Cl)cc1)c1c(O)ccc2ccccc12` (stereo not drawn), the GI50 in the assay on SK-OV-3 ovarian was 3.01 µM; in the assay on NCI-H23 lung, 2.92 µM; with SF-268 CNS it was 4.25 µM; in the assay on RPMI-8226 leukemia, 2.84 µM; with ACHN renal, 2.55 µM; in the assay with OVCAR-5 ovarian it was 3.16 µM. In addition, the GI50 was 2.41 µM in the assay on UO-31 renal, 2.87 µM with 786-0 renal, 3.25 µM in the assay with SNB-19 CNS and 4.67 µM in the assay on IGROV1 ovarian. Besides, the TGI came to 9.26 µM in the assay on SK-OV-3 ovarian; 9.2 µM with NCI-H23 lung; 16 µM in the assay on SF-268 CNS; 8.36 µM in the assay with RPMI-8226 leukemia; 6.9 µM in the assay on ACHN renal; 10.2 µM in the assay with OVCAR-5 ovarian. Besides, the TGI with UO-31 renal was 8.93 µM; in the assay on 786-0 renal it was 9.76 µM; with SNB-19 CNS, 13.8 µM; in the assay on IGROV1 ovarian, 18.3 µM.
In the case of `OCC1OC(n2cnc3c2NC=NC[C@H]3O)CC1O` (stereo partly drawn), the GI50 in the assay on SK-OV-3 ovarian, in the assay on NCI-H23 lung, in the assay with SF-268 CNS, in the assay on RPMI-8226 leukemia, with ACHN renal and with OVCAR-5 ovarian was above 588 µM in each case. Further, the GI50 with UO-31 renal, with 786-0 renal and in the assay with IGROV1 ovarian was above 588 µM throughout. Also, the TGI is 474 µM and > 588 µM in the assay with SK-OV-3 ovarian; 500 µM and > 588 µM in the assay on NCI-H23 lung; 500 µM and > 588 µM in the assay with SF-268 CNS; 500 µM and > 588 µM in the assay with RPMI-8226 leukemia; 497 µM and > 588 µM with ACHN renal; above 588 µM in the assay with OVCAR-5 ovarian. Moreover, the TGI in the assay with UO-31 renal is 500 µM and > 588 µM; in the assay on 786-0 renal it was 500 µM and > 588 µM; in the assay with SNB-19 CNS, 500 µM; with IGROV1 ovarian it was 500 µM and > 588 µM.
Turning to `N=c1n(Cc2ccccc2)c(N)cc(=O)n1Cc1ccccc1`, the GI50 with SK-OV-3 ovarian is 2.99 µM; with NCI-H23 lung, 1.48 µM; in the assay with SF-268 CNS, 1.37 µM; in the assay on RPMI-8226 leukemia, 3.58 µM; in the assay with ACHN renal, 0.747 µM; in the assay on OVCAR-5 ovarian, 4.27 µM. Further, the GI50 in the assay on UO-31 renal is 2.35 µM; with 786-0 renal, 2.97 µM; in the assay with SNB-19 CNS, 5.04 µM; with IGROV1 ovarian it was 4.04 µM. In addition, the TGI stood at 8.44 µM in the assay with SK-OV-3 ovarian; 5.96 µM with NCI-H23 lung; 3.86 µM with SF-268 CNS; 18.1 µM in the assay with RPMI-8226 leukemia; 5.25 µM in the assay with ACHN renal; 14.9 µM in the assay with OVCAR-5 ovarian. Further, the TGI with UO-31 renal was 5.37 µM; in the assay with 786-0 renal, 9.76 µM; with SNB-19 CNS, 18.2 µM; in the assay on IGROV1 ovarian, above 59.8 µM.
In the case of `S=C(c1ccc2c(c1)OCO2)N1CCN(c2cccc(Cl)c2)CC1`, the GI50 in the assay with SK-OV-3 ovarian was 2.91 µM; in the assay with NCI-H23 lung, 2.7 µM; in the assay on SF-268 CNS it was 4.65 µM; with RPMI-8226 leukemia, 0.598 µM; in the assay on ACHN renal, 13.4 µM; in the assay with OVCAR-5 ovarian, 7.69 µM. In addition, the GI50 with UO-31 renal was 4.3 µM; with 786-0 renal it was 1.22 µM; in the assay with SNB-19 CNS, 3.13 µM; in the assay with IGROV1 ovarian, 3.88 µM. The TGI is above 93.9 µM with SK-OV-3 ovarian; above 100 µM in the assay on NCI-H23 lung; above 100 µM with SF-268 CNS; above 100 µM with RPMI-8226 leukemia; above 100 µM in the assay with ACHN renal; above 100 µM with OVCAR-5 ovarian. Also, the TGI in the assay with UO-31 renal is above 72.5 µM; in the assay with 786-0 renal, above 59.6 µM; in the assay with SNB-19 CNS it was above 100 µM; with IGROV1 ovarian, above 100 µM.
Consider `CCCC(=O)Nc1ccc2c(c1)CN1C(=O)c3ccccc3C1=N2`, for which the TGI in the assay on SK-OV-3 ovarian, in the assay on NCI-H23 lung, with SF-268 CNS, with RPMI-8226 leukemia, with ACHN renal and with OVCAR-5 ovarian was above 100 µM each time. Moreover, the TGI in the assay with UO-31 renal, in the assay on 786-0 renal, in the assay with SNB-19 CNS and with IGROV1 ovarian was above 100 µM throughout.

The record behind these values is PubChem BioAssay (NCI).
